This passage reports Activity results from ChEMBL document CHEMBL2074493, “Reversal of multidrug resistance-associated protein-mediated drug resistance by the pyridine analog PAK-104P” (Mol Pharmacol, 1997).

Series [1] deals with T1, Multidrug resistance-associated protein 1 (Homo sapiens, UniProt P33527). Kind of series: TP_TRANSPORTER: increase in Vincristine intracellular accumulation (Vincristine: 1 uM, PAK-104P: 10 uM) in KB-3-1 and C-A120 cell. The series is classed as functional, cell-based. The conditions noted are these: kb-3-1;c-a120, 10 µM.
The target of series [2] is T1, Multidrug resistance-associated protein 1. Kind of series: TP_TRANSPORTER: intracellular accumulation in KB-3-1 and C-A120 cells. The format is functional, cell-based, KB-3-1; C-A120.

T1 sequence (P33527 whole entry): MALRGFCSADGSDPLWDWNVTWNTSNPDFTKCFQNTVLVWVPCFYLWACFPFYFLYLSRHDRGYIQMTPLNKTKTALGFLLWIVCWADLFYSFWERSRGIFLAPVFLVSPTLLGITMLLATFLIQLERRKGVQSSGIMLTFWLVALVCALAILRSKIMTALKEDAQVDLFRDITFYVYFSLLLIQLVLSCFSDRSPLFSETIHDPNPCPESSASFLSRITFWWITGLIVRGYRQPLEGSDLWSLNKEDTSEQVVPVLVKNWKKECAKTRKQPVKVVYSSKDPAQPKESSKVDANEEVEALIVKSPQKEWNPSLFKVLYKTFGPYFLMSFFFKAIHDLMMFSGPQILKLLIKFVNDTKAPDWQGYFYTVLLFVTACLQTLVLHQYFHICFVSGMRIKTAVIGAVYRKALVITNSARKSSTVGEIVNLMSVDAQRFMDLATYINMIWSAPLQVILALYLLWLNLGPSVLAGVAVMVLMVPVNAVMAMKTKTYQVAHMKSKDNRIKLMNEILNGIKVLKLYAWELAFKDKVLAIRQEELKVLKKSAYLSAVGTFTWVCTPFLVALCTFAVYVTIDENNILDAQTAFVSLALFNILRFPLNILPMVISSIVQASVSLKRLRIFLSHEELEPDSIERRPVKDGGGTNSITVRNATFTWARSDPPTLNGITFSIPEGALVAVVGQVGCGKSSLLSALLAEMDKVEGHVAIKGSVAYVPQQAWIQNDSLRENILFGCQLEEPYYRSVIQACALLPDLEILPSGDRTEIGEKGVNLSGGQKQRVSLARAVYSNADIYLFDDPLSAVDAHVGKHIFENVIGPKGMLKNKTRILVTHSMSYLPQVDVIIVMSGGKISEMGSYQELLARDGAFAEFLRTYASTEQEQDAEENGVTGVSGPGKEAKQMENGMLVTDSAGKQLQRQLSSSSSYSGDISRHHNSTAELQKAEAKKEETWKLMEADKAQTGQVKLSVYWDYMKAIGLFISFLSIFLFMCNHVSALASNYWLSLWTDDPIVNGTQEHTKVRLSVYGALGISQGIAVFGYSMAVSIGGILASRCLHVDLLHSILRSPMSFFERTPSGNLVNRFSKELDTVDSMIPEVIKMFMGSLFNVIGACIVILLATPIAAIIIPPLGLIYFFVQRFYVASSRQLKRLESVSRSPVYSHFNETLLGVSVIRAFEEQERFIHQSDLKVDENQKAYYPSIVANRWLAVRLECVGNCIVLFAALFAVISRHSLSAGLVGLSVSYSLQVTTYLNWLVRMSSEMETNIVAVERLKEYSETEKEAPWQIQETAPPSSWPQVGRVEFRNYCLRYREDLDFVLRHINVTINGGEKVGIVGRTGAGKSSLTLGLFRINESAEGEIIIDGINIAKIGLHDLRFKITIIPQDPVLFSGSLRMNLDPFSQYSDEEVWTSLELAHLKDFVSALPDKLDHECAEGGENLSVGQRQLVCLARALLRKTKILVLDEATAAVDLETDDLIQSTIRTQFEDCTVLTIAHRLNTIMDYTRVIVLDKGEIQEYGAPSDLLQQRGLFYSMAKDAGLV

On to `Cc1nc(C)c(P2(=O)O[C@H](C)C[C@@H](C)O2)c(-c2cccc([N+](=O)[O-])c2)c1C(=O)OCCN1CCN(C(c2ccccc2)c2ccccc2)CC1` (some centres not stated), for which the Activity entry in series [1] is “inhibitor [1.3 to 1.7-fold]”.

On to `CC[C@]1(O)C[C@H]2CN(CCc3c([nH]c4ccccc34)[C@@](C(=O)OC)(c3cc4c(cc3OC)N(C=O)[C@H]3[C@@](O)(C(=O)OC)[C@H](OC(C)=O)[C@]5(CC)C=CCN6CC[C@]43[C@@H]65)C2)C1` [VINCRISTINE], for which, in series [2], the Activity entry is “substrate [+]”.
